Data taken from paper PMC10364317, “Regulation of indole‐3‐acetic acid biosynthesis and consequences of auxin production deficiency in Serratia plymuthica” (Microbial Biotechnology, 2023).
Entries after “also recorded” stand apart in the source; their conditions may differ. Where two headings read alike, the source gives them in different places.

Assays:
HpaAA153 = HpaAA153 (Serratia plymuthica, UniProt A0A7T2WCJ6); experiment: Isothermal titration calorimetry of HpaAA153 with ligands; format: binding, Serratia plymuthica A153
Sequence of HpaAA153 (A0A7T2WCJ6 entry or part of it): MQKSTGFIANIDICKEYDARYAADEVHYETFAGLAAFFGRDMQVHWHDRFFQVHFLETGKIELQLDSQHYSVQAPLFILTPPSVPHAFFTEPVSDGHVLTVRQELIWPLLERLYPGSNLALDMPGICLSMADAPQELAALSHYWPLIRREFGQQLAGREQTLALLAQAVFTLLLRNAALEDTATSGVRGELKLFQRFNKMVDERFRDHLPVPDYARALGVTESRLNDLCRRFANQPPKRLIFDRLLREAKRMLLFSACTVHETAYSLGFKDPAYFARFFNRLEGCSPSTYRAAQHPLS
Experimental: (§1) Measurements were made using a VP‐ITC microcalorimeter (MicroCal, Inc., Northampton, MA) at 10–25°C. HpaAA153 and HpaRA153 were dialyzed into 50 mM Tris, 300 mM NaCl, 10% (v/v) glycerol, 2 mM β‐mercaptoethanol, pH 8.0. Alternatively, TyrRA153 was dialyzed into 5 mM Tris, 5 mM PIPES, 5 mM MES, 150 mM NaCl, 10 mM MgCl2, 10 mM β‐mercaptoethanol, 10% (v/v) glycerol, pH 7.5. Proteins at 5–50 μM were placed into the sample cell and titrated with 3.2–12.8 μL aliquots of 0.5–10 mM ligand solutions made up in the corresponding dialysis buffers. For DNA binding studies, wild‐type and mutant oligonucleotides corresponding to the TyrR box were synthesized and annealed. Briefly, an equimolar mixture of 200 μM of each complementary oligonucleotide was prepared in 10 mM Tris, 50 mM NaCl, 1 mM EDTA, pH 7.5. This mixture was subsequently incubated at 95°C for 5 min, chilled on ice and dialyzed in the same buffer used for TyrRA153 ITC studies. A typical experiment consisted in an injection of 3.2–12.8 μL aliquots of 100 μM DNA into a 5–20 μM protein solution in the absence and presence of TyrR ligands (e.g. 1 mM L‐Trp; 1 mM L‐Phe; 0.1 mM L‐Tyr; 0.5 mM ATP). Protein‐DNA interaction studies were done at 10°C. In all cases, the mean enthalpies measured from the injection of the ligand in the buffer were subtracted from raw titration data before data analysis with the ORIGIN software (MicroCal).

HpaRA153 = experiment: Isothermal titration calorimetry of HpaRA153 with ligands; format: binding, Serratia plymuthica A153
Experimental: as §1

TyrRA153 [1] = molecular target: T1, TyrRA153 (Serratia plymuthica, UniProt A0A318P557); experiment: Isothermal titration calorimetry of TyrRA153 with ligands; format: binding, Serratia plymuthica A153; conditions: for competition with L-Tyr for binding at the ATP-dependent site of TyrRA153: 10 mM competitor, 1 mM ATP, titration with 1 mM L-Tyr
Experimental: as §1

ipdc promoter = experiment: β-Galactosidase assay of the ipdc promoter fusion (P ipdc::lacZ; pMAMV302); format: cell-based, Serratia plymuthica A153; conditions: for induction of ipdc gene expression compared to the same medium lacking the ligand: minimal medium with 15 mM glucose, 1 mM ligand, 24 h
Experimental: Expression of the lacZ reporter gene was monitored during growth using 2‐nitrophenyl β‐D‐galactopyranoside (ONPG; Merck) as a substrate, as described previously (Miller, [1972]). The transcriptional fusion assays were carried out using S. plymuthica A153 LacZ (control) or derived mutants.

[2] = set-up: method as in Patten et al., [2013]; conditions: ref Patten et al., [2013]; cited from earlier work
TyrRA153 [3] = molecular target: T1, TyrRA153; experiment: Microcalorimetric titrations of TyrRA153 with 26-bp DNA oligomers of the ipdc promoter (TyrR box); format: binding, Serratia plymuthica A153; conditions: wild-type ipdc promoter oligomer; for increase of TyrRA153 DNA binding affinity: saturating ligand concentration
Experimental: as §1

TyrR (TyrRA153) [4] = molecular target: T2, TyrR (TyrRA153) (Serratia plymuthica A153, UniProt A0A318P557 1-523); experiment: ITC; no amino acid or ATP; 10 mM MgCl2; ITC: 5 mM Tris, 5 mM PIPES, 5 mM MES, 150 mM NaCl, 10 mM MgCl2, 10 mM beta-mercaptoethanol, 10% glycerol, pH 7.5, 10 C; 100 uM DNA injected into 5-20 uM TyrR; conditions: protein: recombinant; tags: N-terminal His6; chain copies: 2; blunt
T2 sequence: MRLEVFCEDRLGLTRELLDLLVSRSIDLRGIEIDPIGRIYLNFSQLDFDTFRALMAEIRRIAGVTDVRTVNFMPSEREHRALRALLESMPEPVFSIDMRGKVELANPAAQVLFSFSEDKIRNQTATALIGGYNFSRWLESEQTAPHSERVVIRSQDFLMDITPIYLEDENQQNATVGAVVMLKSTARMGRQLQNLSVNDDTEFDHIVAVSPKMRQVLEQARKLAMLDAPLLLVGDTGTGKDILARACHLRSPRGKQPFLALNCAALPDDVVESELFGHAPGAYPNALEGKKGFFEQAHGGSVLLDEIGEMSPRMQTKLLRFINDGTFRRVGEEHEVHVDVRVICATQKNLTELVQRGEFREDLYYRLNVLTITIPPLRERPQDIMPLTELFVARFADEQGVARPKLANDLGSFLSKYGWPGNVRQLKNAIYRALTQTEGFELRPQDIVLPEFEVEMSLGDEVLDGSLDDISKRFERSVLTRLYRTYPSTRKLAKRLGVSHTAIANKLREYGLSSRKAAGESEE

TyrR (TyrRA153) [5] = molecular target: T2, TyrR (TyrRA153); experiment: ITC; L-Phe (saturating; e.g. 1 mM); 10 mM MgCl2; ITC: 5 mM Tris, 5 mM PIPES, 5 mM MES, 150 mM NaCl, 10 mM MgCl2, 10 mM beta-mercaptoethanol, 10% glycerol, pH 7.5, 10 C; 100 uM DNA injected into 5-20 uM TyrR; conditions: protein: recombinant; tags: N-terminal His6; chain copies: 2; blunt
TyrR (TyrRA153) [6] = molecular target: T2, TyrR (TyrRA153); experiment: ITC; L-Tyr + ATP (saturating; e.g. 0.1 mM L-Tyr, 0.5 mM ATP); 10 mM MgCl2; ITC: 5 mM Tris, 5 mM PIPES, 5 mM MES, 150 mM NaCl, 10 mM MgCl2, 10 mM beta-mercaptoethanol, 10% glycerol, pH 7.5, 10 C; 100 uM DNA injected into 5-20 uM TyrR; conditions: protein: recombinant; tags: N-terminal His6; chain copies: 2; blunt
[7] = ITC, ligand alone (absence of ATP for amino acids)
[8] = ITC, ligand alone (absence of ATP for amino acids), read-out: K D
[9] = ITC, in the presence of ATP, read-out: K D

Molecule: O=C(O)Cc1ccc(O)c(O)c1 [3,4HPA, 3,4‐dihydroxyphenylacetic acid]
- binding to HpaAA153 as determined by isothermal titration calorimetry (HpaAA153): did not bind
- binding to HpaRA153 as determined by isothermal titration calorimetry (HpaRA153): unable to observe the binding
- binding to HpaRA153 as determined by isothermal titration calorimetry (HpaRA153; listed as 3,4-dihydroxyphenylacetic acid): did not bind

Molecule: O=C(O)Cc1cccc(O)c1 [3-hydroxyphenylacetic acid]
- binding to HpaRA153 as determined by isothermal titration calorimetry (HpaRA153): did not bind

Molecule: Cc1cccc(C(=O)O)c1 [3-methylbenzoic acid]
- binding to HpaAA153 as determined by isothermal titration calorimetry (HpaAA153): did not bind
- binding to HpaRA153 as determined by isothermal titration calorimetry (HpaRA153): did not bind

Molecule: O=C(O)Cc1ccc(O)cc1 [4HPA, 4‐hydroxyphenylacetic acid]
- Kd (HpaAA153): 28.5 µM
- binding to HpaRA153 as determined by isothermal titration calorimetry (HpaRA153): unable to observe the binding

Molecule: O=C(O)c1ccc(O)cc1 [4‐hydroxybenzoic acid]
- Kd (HpaAA153): 28.5 ± 2 µM
- ΔH (HpaAA153; ITC, One binding site model): -0.4 ± 0.03 kcal/mol
- binding to HpaRA153 as determined by isothermal titration calorimetry (HpaRA153): did not bind

Molecule: Nc1ncnc2c1ncn2[C@@H]1O[C@H](COP(=O)(O)OP(=O)(O)OP(=O)(O)O)[C@@H](O)[C@H]1O [ATP]
- ΔH (TyrRA153 [1]; [7]): -22.9 ± 1.5 kcal/mol
- Kd (TyrRA153 [1]; [8]): 16 ± 0.7 µM

Molecule: O=C(O)c1ccccc1 [Benzoic acid]
- binding to HpaAA153 as determined by isothermal titration calorimetry (HpaAA153): did not bind
- binding to HpaRA153 as determined by isothermal titration calorimetry (HpaRA153): did not bind

Molecule: O=C(O)Cc1c[nH]c2ccccc12 [IAA, Indole‐3‐acetic acid]
- binding to HpaAA153 as determined by isothermal titration calorimetry (HpaAA153): unable to observe IAA binding
- binding to HpaAA153 as determined by isothermal titration calorimetry (HpaAA153; listed as Indole-3-acetic acid): did not bind
- binding to HpaRA153 as determined by isothermal titration calorimetry (HpaRA153): unable to observe IAA binding
- binding to HpaRA153 as determined by isothermal titration calorimetry (HpaRA153; listed as Indole-3-acetic acid): did not bind
- binding to TyrRA153 as determined by isothermal titration calorimetry (TyrRA153 [1]): did not bind
- effect of supplementation on ipdc expression (ipdc promoter; 0.25 mM and 1 mM, wild-type A153 and ipdc mutant): did not result in altered ipdc expression
- induction of ipdc gene expression compared to the same medium lacking the ligand (ipdc promoter; 30°C): No changes in ipdc expression
- pKa [2]: 4.8

Molecule: O=C(O)C(=O)Cc1c[nH]c2ccccc12 [Indole-3-pyruvic acid]
- binding to HpaAA153 as determined by isothermal titration calorimetry (HpaAA153): did not bind
- binding to HpaRA153 as determined by isothermal titration calorimetry (HpaRA153): did not bind

Molecule: N[C@@H](Cc1ccccc1)C(=O)O [L‐Phe, L‐Phenylalanine]
- competition with L-Tyr for binding at the ATP-dependent site of TyrRA153 (TyrRA153 [1]; ITC): compete with L‐Tyr for binding
- ΔH (TyrRA153 [1]; ITC, in the presence of ATP): -0.2 ± 0.01 kcal/mol
- Kd (TyrRA153 [1]; [9]): 193 ± 24 µM
- K D (TyrRA153 [1]; [7]): bound; also recorded: Binding ^a
- ΔH (TyrRA153 [1]; [7]): Binding ^a
- increase of TyrRA153 DNA binding affinity (TyrRA153 [3]): 2.6 fold
- induction of ipdc gene expression compared to the same medium lacking the ligand (ipdc promoter; 30°C): 5.1 fold

Molecule: N[C@@H](Cc1c[nH]c2ccccc12)C(=O)O [L‐Trp, L‐Tryptophan]
- competition with L-Tyr for binding at the ATP-dependent site of TyrRA153 (TyrRA153 [1]; ITC): compete with L‐Tyr for binding
- ΔH 1 (TyrRA153 [1]; ITC, in the presence of ATP): -1.8 ± 0.3 kcal/mol
- ΔH 2 (TyrRA153 [1]; ITC, in the presence of ATP): -7.9 ± 1.7 kcal/mol
- Kd (TyrRA153 [1]; ITC, in the presence of ATP, read-out: K D1): 1640 µM
- Kd (TyrRA153 [1]; ITC, in the presence of ATP, read-out: K D2): 2060 µM
- K D (TyrRA153 [1]; [7]): bound
- ΔH (TyrRA153 [1]; [7]): -1.6 ± 0.5 kcal/mol
- Kd (TyrRA153 [1]; [8]): 2680 ± 670 µM
- reduction of TyrRA153 DNA affinity (TyrRA153 [3]; presence of ligand): 2.3 fold
- effect of supplementation on ipdc transcription (ipdc promoter; LB medium, different concentrations, 30°C): did not result in increased ipdc transcription
- induction of ipdc gene expression compared to the same medium lacking the ligand (ipdc promoter; 30°C): no changes in ipdc expression

Molecule: N[C@@H](Cc1ccc(O)cc1)C(=O)O [L‐Tyr, L‐Tyrosine]
- ΔH (TyrRA153 [1]; ITC, in the presence of ATP): -6.8 ± 0.1 kcal/mol
- Kd (TyrRA153 [1]; [9]): 6 ± 0.2 µM
- K D (TyrRA153 [1]; [7]): No binding
- ΔH (TyrRA153 [1]; [7]): No binding
- increase of TyrRA153 DNA binding affinity (TyrRA153 [3]): 2.4 fold
- induction of ipdc gene expression compared to the same medium lacking the ligand (ipdc promoter; 30°C): 11.0 fold

Molecule: O=C(O)Cc1ccccc1 [PAA, phenylacetic acid]
- binding to HpaAA153 as determined by isothermal titration calorimetry (HpaAA153): did not recognize
- binding to HpaAA153 as determined by isothermal titration calorimetry (HpaAA153; listed as Phenylacetic acid): did not bind
- binding to HpaRA153 as determined by isothermal titration calorimetry (HpaRA153): did not recognize
- binding to HpaRA153 as determined by isothermal titration calorimetry (HpaRA153; listed as Phenylacetic acid): did not bind

Molecule: O=C(O)c1ccccc1O [Salicylic acid]
- binding to HpaAA153 as determined by isothermal titration calorimetry (HpaAA153): did not bind
- binding to HpaRA153 as determined by isothermal titration calorimetry (HpaRA153): did not bind

B1: Pipdc-mut-ITC (mutant TyrR box) (dsDNA)
DNA 1: CCCCGACGTGGGAGCCGCCGTGTCAA
DNA 2: TTGACACGGCGGCTCCCACGTCGGGG
- binding result (TyrR (TyrRA153) [4]): no binding

B2: Pipdc-wt-ITC (wild-type TyrR box) (dsDNA)
DNA 1: CCCCTGTAAAGGAGCCATTACATCAA
DNA 2: TTGATGTAATGGCTCCTTTACAGGGG
- Kd (TyrR (TyrRA153) [4]): 0.193 ± 0.02 µM
- Kd (TyrR (TyrRA153) [5]): 0.074 ± 0.01 µM
- Kd (TyrR (TyrRA153) [6]): 0.081 ± 0.01 µM
